Here are results for six compounds from patent publication US8841257B2, “Inhibitors of STAT3 and uses thereof” (Board of Regents, The University of Texas System, priority 2009, dated 2014).

The target in assay [1] is T1, STAT3 (Homo sapiens, UniProt P40763). Briefly: Inhibition of STAT3 phosphorylation in BT20 breast tumor cells (western blot). The format is cell-based. Details: endogenous in cells; host or cells: BT20 breast tumor cells. Particulars: 5 μM; BT-20 cells. As to the method:
Inhibition of STAT3 in BT20 Breast Tumor Cells. General procedure: 35 mm petri dishes were plated with 300,000 BT20 cells in 2 mL RPMI1640 media containing 10% FBS, […], streptomycin, and glutamine. Prodrugs were dissolved in DMSO and were added to the cells with fresh media at varying concentrations. After 2 h the cells were washed with ice cold phosphate buffered saline. Washed cells were treated with lysis buffer (50 mM Hepes, pH 7.4, 150 mM NaCl, 1.5 mM MgCl2, 1 mM EGTA, 100 mM NaF, 10 mM sodium pyrophosphate, 10% glycerol, 1% Triton X-100, 1 mM PMSF, 1 mM Na3VO4, 10 μg/mL leupeptin and 10 μg/mL aprotinin). Cell-free detergent extracts were centrifuged at 15,000 rpm in a microcentriguge for 30 min at 4° C. and the protein concentrations of the supernatants determined. Aliquots containing 12 μg of protein were separated on 8% SDS-PAGE and were transferred to PVDF filters. The filters were blocked with 5% bovine serum albumin and were probed with pStat3^Y705 antibody followed by secondary antibody, whose signal was detected with an enhanced chemiluminescence kit (ECL, Amersham, Chicago, Ill.). Filters were stripped with stripping buffer (62.5 mM Tris, pH 6.8, 2% SDS, and 0.1 M 2-mercaptoethanol) at 50° C. for 30 min. Filters were then probed with total Stat3 antibody and visualized with chemiluminescence as above.
Because DMSO is toxic, other formulations were evaluated for potential use in animal models. The compound of Example 1 was dissolved in EtOH, 20% (w/v) Trappsol (hydroxypropyl β-cyclodextran, pharmaceutical grade), or a liposomal formulation to a concentration of 5 mM. These formulations were given to cells at 0.1, 0.5, and 5 μM concentrations. At two hours, cells were lysed and pSTAT3 levels were determined by Western Blot (FIG. 3). Different formulations have little effect on inhibition of STAT3. The compound of Example 1 was dissolved in DMSO, EtOH, Trappsol, or as a 10 mol % mixture in dimyristoylphosphatidyl choline and applied to BT20 cell in culture. After two hours, cells were lysed and pSTAT3 levels determined by Western blot. To prepare liposomes a solution of 1.0 mg of the compound of Example 1, 7.2 mg of DMPC, 0.41 mg of Tween 20 in 1.0 mL of tert-butanol was lyophilized. A control lipid formulation of 7.2 mg of DMPC and 0.41 mg of Tween 20 in 1.0 mL of tert-butanol was lyophilized. These samples were mixed with 236 μL of H2O and were vortexed and sonicated for 5 min.
The compounds are selective for STAT3 over STAT1 in BT20 breast tumor cells. BT20 cells prepared as above and were treated with 5 μM of the compound of Example 1 for two hours then were treated with 25 ng/mL of interferon γ (IFNγ). […] (FIG. 4, bottom panel).
Time course of inhibition of STAT3 phosphorylation in BT20 cells. BT20 cells were plated as above and treated with the compounds from Examples 1 and 6 and western blots were performed at varying time intervals.

Assay [2] addresses T1, STAT3. Briefly: Inhibition of Stat3 tyrosine705 phosphorylation in MDA-MB-468 cells. Type of assay: cell-based. Also noted: host or cells: MDA-MB-468 breast tumor cells. Particulars: prodrug in DMSO, 2 h. As to the method: Inhibition of Stat3 tyrosine705 phosphorylation in MDA-MB-468 cells. MDA-MB-468 breast tumor cells (0.4×10^6) were plated onto 35 mm culture dishes and were allowed to grow overnight. Prodrugs were prepared as 10 mM stock solutions in DMSO and aliquots were added to the culture media to give the correct final concentrations. After 2 h the cells were washed with ice cold phosphate buffered saline. Washed cells were treated with lysis buffer (50 mM Hepes, pH 7.4, 150 mM NaCl, 1.5 mM MgCl2, 1 mM EGTA, 100 mM NaF, 10 mM sodium pyrophosphate, 10% glycerol, 1% Triton X-100, 1 mM PMSF, 1 mM Na3VO4, 10 μg/mL leupeptin and 10 μg/mL aprotinin). Cell-free detergent extracts were centrifuged at 15,000 rpm in a microcentriguge for 30 min at 4° C. and the protein concentrations of the supernatants determined. Aliquots containing 12 μg of protein were separated on 8% SDS-PAGE and were transferred to PVDF filters. The filters were blocked with 5% bovine serum albumin and were probed with pStat3^Y705 antibody followed by secondary antibody, whose signal was detected with an enhanced chemiluminescence kit (ECL, Amersham, Chicago, Ill.). Filters were stripped with stripping buffer (62.5 mM Tris, pH 6.8, 2% SDS, and 0.1 M 2-mercaptoethanol) at 50° C. for 30 min. Filters were then probed with total Stat3 antibody and visualized with chemiluminescence as above.

“Also recorded” adds a separate entry of the source.

T1 sequence (P40763 whole entry): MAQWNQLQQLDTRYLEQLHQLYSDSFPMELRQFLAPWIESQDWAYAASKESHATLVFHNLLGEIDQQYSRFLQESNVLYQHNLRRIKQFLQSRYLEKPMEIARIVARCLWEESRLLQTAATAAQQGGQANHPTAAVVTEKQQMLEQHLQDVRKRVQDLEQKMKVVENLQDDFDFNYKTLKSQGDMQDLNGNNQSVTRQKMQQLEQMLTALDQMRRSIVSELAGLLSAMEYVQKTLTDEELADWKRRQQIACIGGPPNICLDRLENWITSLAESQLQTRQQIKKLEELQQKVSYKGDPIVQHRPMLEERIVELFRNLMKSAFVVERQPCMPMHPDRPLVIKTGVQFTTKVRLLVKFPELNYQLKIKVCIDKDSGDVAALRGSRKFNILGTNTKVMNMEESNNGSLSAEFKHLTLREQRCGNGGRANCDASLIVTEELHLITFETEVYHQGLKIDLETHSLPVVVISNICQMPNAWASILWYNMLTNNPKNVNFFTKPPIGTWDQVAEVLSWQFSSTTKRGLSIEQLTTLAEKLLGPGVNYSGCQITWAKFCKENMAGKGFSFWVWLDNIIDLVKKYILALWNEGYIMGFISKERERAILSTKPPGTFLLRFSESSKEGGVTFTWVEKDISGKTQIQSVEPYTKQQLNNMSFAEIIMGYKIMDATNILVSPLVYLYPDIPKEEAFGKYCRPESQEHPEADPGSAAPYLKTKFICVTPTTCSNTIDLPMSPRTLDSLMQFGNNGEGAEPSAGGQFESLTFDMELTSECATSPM

Consider `C/C(=C\C(=O)N[C@H]1CCc2cccc3c2N(C1=O)[C@H](C(=O)N[C@H](C)CCC(N)=O)C3)c1ccc(OP(=O)(OCOC(=O)C(C)(C)C)OCOC(=O)C(C)(C)C)cc1` [Example 6, (2E)-3-[4-[[bis[(2,2-dimethyl-1-oxopropoxy)methoxy]phosphinyl]oxy]phenyl]-but-2-enoyl-Haic-(R)-4-aminopentamide], for which, at STAT3 [1], the “phosphorylation of STAT3 at the indicated time points” value is “inhibit the phosphorylation of STAT3”.

Regarding `CCCC[C@H](NC(=O)/C=C(\C)c1ccc(C(F)(F)P(=O)(OCOC(=O)C(C)(C)C)OCOC(=O)C(C)(C)C)cc1)C(=O)N1C[C@@H]2CC2[C@@H]1C(=O)N[C@@H](CCC(N)=O)[C@@H](C)OCc1ccccc1` (stereo partly drawn) [Example 17, (2E)-3-[4-[[bis[(2,2-dimethyl-1-oxopropoxy)methoxy]phosphinyl]difluoromethyl]phenyl]-but-2-enoyl-norleucinyl-(2R,3S,4R)-methanoprolinyl-(4S,5R)-4-amino-5-benzyloxyhexamide], the “inhibition of Tyr705 phosphorylation of Stat3 (potency in words)” value (“inhibition” for short) at STAT3 [2] is “very weak inhibitors; also recorded: much less potent”.

Regarding `CCCC[C@H](NC(=O)/C=C(\C)c1ccc(C(F)(F)P(=O)(OCOC(=O)C(C)(C)C)OCOC(=O)C(C)(C)C)cc1)C(=O)N1C[C@@H]2CC2[C@@H]1C(=O)N[C@H](C)CCC(N)=O` (stereo partly drawn) [Example 19, (2E)-3-[4-[[bis[(2,2-dimethyl-1-oxopropoxy)methoxy]phosphinyl]difluoromethyl]phenyl]-but-2-enoyl-norleucinyl-(2R,3S,4R)-methanoprolinyl-(R)-4-aminopentamide], the “inhibition” value on STAT3 [2] is given as “very weak inhibitors; also recorded: much less potent”. Same read-out and setting: with `CCCC[C@H](NC(=O)/C=C(\C)c1ccc(C(F)(F)P(=O)(OCOC(=O)C(C)(C)C)OCOC(=O)C(C)(C)C)cc1)C(=O)N1CCC[C@H]1C(=O)N[C@H](C)CCC(N)=O` [Example 23, (2E)-3-[4-[[bis[(2,2-dimethyl-1-oxopropoxy)methoxy]phosphinyl]difluoromethyl]phenyl]-but-2-enoyl-norleucinyl-prolinyl-(R)-4-aminonentamide] the entry was “inhibit phosphorylation of STAT3”; with `CCCC[C@H](NC(=O)/C=C(\C)c1ccc(C(F)(F)P(=O)(OCOC(=O)C(C)(C)C)OCOC(=O)C(C)(C)C)cc1)C(=O)N1CC(F)(F)C[C@H]1C(=O)N[C@H](C)CCC(N)=O` [Example 24, (2E)-3-[4-[[bis[(2,2-dimethyl-1-oxopropoxy)methoxy]phosphinyl]difluoromethyl]phenyl]-but-2-enoyl-norleucinyl-4,4-difluoroprolinyl-(R)-4-aminopentamide], “inhibit phosphorylation of STAT3”. For `CCCC[C@H](NC(=O)/C=C(\C)c1ccc(C(F)(F)P(=O)(OCOC(=O)C(C)(C)C)OCOC(=O)C(C)(C)C)cc1)C(=O)N1CC(C)(C)C[C@H]1C(=O)N[C@H](C)CCC(N)=O` [Example 25, (2E)-3-[4-[[bis[(2,2-dimethyl-1-oxopropoxy)methoxy]phosphinyl]difluoromethyl]phenyl]-but-2-enoyl-norleucinyl-4,4-dimethylprolinyl-(R)-4-aminopentamide], the “inhibition” value on STAT3 [2] is recorded as “inhibit phosphorylation of STAT3”.
